According to patent EP2326714B1, “METHOD FOR THE PRODUCTION OF A FEED ADDITIVE FOR THE OXYGEN-INDEPENDENT, ENZYMATIC DECOMPOSITION OF MYCOTOXINS, FEED ADDITIVE, AND USE THEREOF” (Erber Aktiengesellschaft, priority 2008, dated 2010):

Assays:
[1] = target: T1, Fumonisin-Carboxylesterase FumD, Sequenz ID-Nr. 9 (fumD Gen Sequenz ID-Nr. 8), Sphingopyxis sp. Stamm DSM 16254, his-getaggt, in Pichia pastoris exprimiert (Sphingopyxis macrogoltabida, UniProt D2D3B6); experiment: Enzyme kinetics of fumonisin carboxylesterase (Michaelis-Menten, HPLC-MS/MS); assay type: biochemical; conditions: substrate FB1; enzyme 0,33 ng/ml; Tris-Cl pH 8,0; 30 °C
T1 construct: His tag; made in house; host or cells: Pichia pastoris (secreted, purified from the culture supernatant)
Method: (§1) Das fumD Gen (Sequenz ID-Nr. 8), welches eine Fumonisin-Carboxylesterase codiert, wurde kloniert und in Pichia pastoris unter Verwendung von Standardverfahren exprimiert. Das his-getaggte Enzym wurde rückgewonnen und aus der überstehenden Lösung der Kultur durch Affinitätschromatographie gereinigt. Die Enzymkonzentration wurde bestimmt und die enzymkinetischen Parameter wurden mit sieben unterschiedlichen Substratkonzentrationen im Bereich zwischen 50 µg bis 25 mg FB1 pro Liter und einer Enzymkonzentration von 0,33 ng/ml bestimmt. Die Reaktionen wurden in 20 mM Tris-Cl (pH 8,0) Puffer mit 0,1 mg/ml Rinderserumalbumin gepuffert und bei 30 °C inkubiert. Proben wurden nach 0, 30, 60 120 und 240 Minuten Inkubation genommen und durch HPLC-MS/MS analysiert. Fumonisin B1 (FB1) und hydrolysiertes Fumonisin B1 wurden quantifiziert basierend auf einer Kalibrierung mit den gereinigten Referenzsubstanzen und einem vollständig ^13C markierten, internen FB1 Standard.
(§2) Fig. 2 zeigt die Michaelis-Menten-Kurve für die Transformation von Fumonisin B1 (FB1) durch Fumonisin-Carboxylesterase FumD, welche bei einer Enzymkonzentration von 0,33 ng/ml in Tris-Cl-Puffer (pH 8,0) bestimmt wurde, wobei anfängliche Enzymgeschwindigkeiten gegen die Substratkonzentration aufgetragen wurden. Die Michaelis-Menten-Kurve zeigt einen Abfall bei höheren Substratkonzentrationen, da die Enzymgeschwindigkeit basierend auf dem Produkt, d.h. hydrolysierter FB1-Bildung berechnet wurde. Da hydrolysiertes FB1 aus FB1 in einer zweistufigen Reaktion über partiell hydrolysiertes FB1 mit lediglich einer Tricarballylsäure-Seitenkette, die zurückbehalten wurde, und einer Seitenkette ausgebildet wird, die abgespalten wurde, war die Endproduktbildung bei hohen Substratkonzentrationen verzögert. Die Michaelis-Menten-Konstante KM wurde als 0,90 µmol/l berechnet, was 650 ppb äquivalent ist, und die Umwandlungszahl war 900 pro Sekunde.

[2] = test system: Absetzferkel; experiment: Feeding trial with piglets (fumonisin B1 contaminated feed, positive control); assay type: in vivo, Ferkel (ÖHYB); conditions: 4 - 5,5 ppm Fumonisin B1 in feed, no enzyme
Text: Der Versuch wurde in einem Versuchsstall mit 12 Buchten für jeweils 10 Tiere durchgeführt. Der Stall war ausgestattet mit Spaltenboden, Schalentränkern und einem computergesteuerten Fütterungssystem. Die Automaten waren entlang der Buchtenwände angeordnet. Das Stallklima wurde täglich automatisch aufgezeichnet und die Temperatur nach den Standardempfehlungen zur Ferkelaufzucht eingestellt.
120 gemischt-geschlechtliche Absetzferkel (Alter: ca. 4 Wochen, durchschnittliches Einstellgewicht 8,21 kg) wurden für diesen Versuch eingesetzt. Jedes Ferkel wurde mit einer Ohrmarke versehen und einzeln gewogen. Die 120 Ferkel wurden auf 12 Buchten zufällig verteilt. Alle Ferkel entstammten dem österreichischen Zuchtprogramm ÖHYB (= (Edelschwein x Landrasse) x Pietrain).
Direkt nach dem Absetzen wurden die Ferkel für 2 Tage mit einem Starterfutter gefüttert, nach dieser Eingewöhnungsphase erfolgte die Umstellung auf das Versuchsfutter. Die Fütterung erfolgte 2-phasig: Absetzphase Tag 1 - 14, Aufzuchtphase Tag 15 - 42. Das Versuchsfutter wurde buchtenindividuell über die Spotmix-Fütterungsanlage gemischt und je nach Anzahl der Ferkel, Gewichtsentwicklung und Futterverzehr zweimal täglich trocken zugeteilt. Wasser stand zur Aufnahme ad libitum zur Verfügung. Die 12 Buchten wurden in vier verschiedene Applikationsgruppen zu je drei Wiederholungen geteilt und erhielten die folgenden Einmischungen ins oben beschriebene Futter: […]

[3] = test system: CCCC[C@@H](C)[C@@H](OC(=O)C[C@@H](CC(=O)O)C(=O)O)[C@H](C[C@@H](C)C[C@H](O)CCCC[C@@H](O)C[C@H](O)[C@H](C)N)OC(=O)C[C@@H](CC(=O)O)C(=O)O; experiment: Enzyme kinetics of fumonisin carboxylesterase (Michaelis-Menten, HPLC-MS/MS); assay type: biochemical, Sphingopyxis sp.
Method: as §1, §2

T1 sequence (D2D3B6 whole entry): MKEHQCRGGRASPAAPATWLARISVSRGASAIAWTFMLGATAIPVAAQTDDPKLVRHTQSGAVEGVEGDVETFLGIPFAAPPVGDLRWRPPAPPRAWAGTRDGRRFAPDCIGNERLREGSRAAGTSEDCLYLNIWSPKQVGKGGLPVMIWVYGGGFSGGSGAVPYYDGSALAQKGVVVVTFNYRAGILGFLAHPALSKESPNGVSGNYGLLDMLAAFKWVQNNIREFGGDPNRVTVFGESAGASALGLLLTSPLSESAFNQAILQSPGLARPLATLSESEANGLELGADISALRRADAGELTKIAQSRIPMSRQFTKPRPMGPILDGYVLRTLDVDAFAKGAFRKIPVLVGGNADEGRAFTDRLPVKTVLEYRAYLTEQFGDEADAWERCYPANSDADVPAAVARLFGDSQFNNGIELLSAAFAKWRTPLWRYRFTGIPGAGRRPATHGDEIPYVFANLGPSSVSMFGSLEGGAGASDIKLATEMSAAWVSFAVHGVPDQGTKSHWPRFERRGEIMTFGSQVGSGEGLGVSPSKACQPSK

| Compound | Umwandlungszahl [1] [pro Sekunde] | Ausfälle ([2]; 30 piglets, 42 days) | Endgewicht (Durchschnitt, kg) ([2]; 30 piglets, 42 days, negative control 26,82) | respiratorische Probleme ([2]; all other groups appeared healthy) | Km ([3]; other: same KM expressed in ppb, pH 8.0, 30.0 °C) [ppb] | Km ([3]; other: substrate FB1, 50 µg to 25 mg per litre, enzyme 0,33 ng/ml, 20 mM Tris-Cl pH 8,0, 0,1 mg/ml BSA, 30 °C, rate based on formation of hydrolysed FB1) |
| --- | --- | --- | --- | --- | --- | --- |
| CCCC[C@@H](C)[C@@H](OC(=O)C[C@@H](CC(=O)O)C(=O)O)[C@H](C[C@@H](C)C[C@H](O)CCCC[C@@H](O)C[C@H](O)[C@H](C)N)OC(=O)C[C@@H](CC(=O)O)C(=O)O [Fumonisin B1] | 900 | 1 | 24,77 kg | bei fast der Hälfte der Tiere respiratorische Probleme beobachtet | – | – |
| Fumonisin-Carboxylesterase FumD, Sequenz ID-Nr. 9 (fumD Gen Sequenz ID-Nr. 8), Sphingopyxis sp. Stamm DSM 16254, his-getaggt, in Pichia pastoris exprimiert (Sphingopyxis macrogoltabida) | – | – | – | – | 650 | 0,90 µmol/l |
